Like-named read-outs stand apart in the source and are kept apart here.
Columns and labels:
cyprids of A. amphitrite = assay: whole plant or invertebrate; format: in vivo; conditions: for EC50 / IC50: Amphibalanus amphitrite; for EC50: read-out: EC50 No Metamorphosis; for IC50: read-out: IC50 Settlement
Procedure: (§1) Adult A. amphitrite (Cirripedia, Balanidae) were collected from boat docks at Port Mikrolimano and Floisvos, Athens, Greece. Animals were cleaned of epibionts with a small hard brush and meticulously identified as individuals of the species. Adult barnacles were kept in separate aerated glass tanks (20 L) containing 200-μm filtered natural seawater at 27 °C and a 12:12 L:D photoperiod. Tanks were fed with 24-h hatched Artemia sp. (Branchiopoda) nauplii and Tetraselmis suecica (Chlorodendrophyceae) and Skeletonema costatum (Bacillariophyceae) algae each day and seawater was changed on alternate days. Upon stress to induce oviposition (exposure to air for 24 h or immersion in fresh water for 5 h), adults were returned to seawater for larval release. Hatched nauplii were attracted to a point light source, collected and placed into a beaker containing 2 or 3 L of 0.7 μm GF/F (GE Healthcare, Little Chalfont, UK )-filtered natural seawater at a density of approximately 1–2 nauplii/mL with gentle aeration. Nauplii were maintained at 27 °C at a 12:12 L:D photoperiod on a diet of C. gracilis (Bacillariophyceae) provided at a density of 2 × 10^5 cells/mL. Cultured in these conditions, nauplii metamorphosed to cyprids in 5 days. Aliquots of these cyprids were collected with a wide-mouthed Pasteur pipette and aged at 4 °C for 1 day prior to use in settlement assays. Only batches of cyprids that were active and had numerous oil cells, representing energy reserves, were used in settlement assays.
(§2) Assays were conducted by adding 10 cyprids into individual wells of a 24-well polystyrene sterile microplate (Orange Scientific, Braine l’Alleud, Belgium) with 2 mL of artificial sea water (ASW) (25‰) and various concentrations of the chemical compounds as listed in Table 1. These experiments were repeated at least three times with four replicates for each concentration of any given compound (n = 120 cyprids/compound). Stock solutions for all compounds were prepared in methanol (Scharlab, Barcelona, Spain) and serial dilutions were prepared in 0.7 μm (GF/F, GE Healthcare, Little Chalfont, UK), filtered sea water to have a final concentration of 2.5% methanol in each assay solution. Plates were covered and sealed with Parafilm® to avoid evaporation and incubated at 25 °C away from any light source and examined after 24, 48 and 72 h. Each animal was inspected under a stereomicroscope and its condition was recorded. […] Both permanently attached and metamorphosed individuals were counted as settled or juveniles. The remainder were counted as ‘no metamorphosis’, i.e. animals that responded to light touch and were still cyprids at the end of the experiments with no overt signs of metamorphosis.
(§3) For EC50 or IC50 (the concentration that results in 50% stimulation or inhibition relative to the control) calculations in GraphPad Prism v.6, all data were fitted to the curve according to the following models for normalized response: Y = 100/(1 + 10^((X − LogIC50))) or Y = 100/(1 + 10^((LogEC50 − X))) depending on the trend of the curve.

in vivo = format: in vivo; conditions: Amphibalanus amphitrite, in vivo, read-out: LC50 Mortality; for LC50 at 24 h: 24 h exposure; for LC50 at 48 h: 48 h exposure; for LC50 at 72 h: 72 h exposure
Procedure: as §1, §2, §3

**Q.** With C=C1CC[C@@](C)(c2ccc(C)cc2)[C@H]1C [Compound 1, laurene] as the compound, how does the EC50 (cyprids of A. amphitrite; 24 h) read?
**A.** 38 µM

**Q.** What about the IC50 (cyprids of A. amphitrite; 24 h) of the same compound?
**A.** 27.9 µM

**Q.** And the IC50 (cyprids of A. amphitrite; 48 h)?
**A.** 14.6 µM

**Q.** And the IC50 (cyprids of A. amphitrite; 72 h)?
**A.** 16.2 µM

**Q.** And the LC50 at 24 h (in vivo)?
**A.** 26 µM

**Q.** And the LC50 at 48 h (in vivo)?
**A.** 230 µM

**Q.** And the LC50 at 72 h (in vivo)?
**A.** 29.5 µM

**Q.** Which results are given for CCC=CCC(Br)C(CC1OC(C=C=CBr)CC1OC(C)=O)OC(C)=O (stereo not drawn) [Compound 23, graciosallene]?
**A.** EC50 (cyprids of A. amphitrite; 24 h): 0.276 µM; IC50 (cyprids of A. amphitrite; 24 h): 0.237 µM; EC50 (cyprids of A. amphitrite; 48 h): 10.3 µM; IC50 (cyprids of A. amphitrite; 48 h): 9.18 µM; EC50 (cyprids of A. amphitrite; 72 h): 11.2 µM; IC50 (cyprids of A. amphitrite; 72 h): 9.7 µM

**Q.** What does the source list for CC(C)C1=C2CCC(C)C2CC(C)(C)C1O (stereo not drawn) [Compound 8, 4-hydroxy-5-brasilene]?
**A.** EC50 (cyprids of A. amphitrite; 24 h): 6.81 µM; IC50 (cyprids of A. amphitrite; 24 h): 15.8 µM; EC50 (cyprids of A. amphitrite; 48 h): 5.01 µM; IC50 (cyprids of A. amphitrite; 48 h): 17.5 µM; EC50 (cyprids of A. amphitrite; 72 h): 5.42 µM; IC50 (cyprids of A. amphitrite; 72 h): 6.95 µM; toxic effect on cyprids (cyprids of A. amphitrite; in vivo): obvious toxic effect on cyprids; LC50 at 24 h (in vivo): 7.76 µM; LC50 at 48 h (in vivo): 7.38 µM; LC50 at 72 h (in vivo): 5.93 µM

**Q.** Which EC50 (cyprids of A. amphitrite; 24 h) does the source give for C=CC(C)(O)CC[C@H](Br)[C@@]1(C)CC[C@H](Br)C(C)(C)O1 (stereo partly drawn) [Compound 13, obtusenol] here?
**A.** 46.4 µM

**Q.** What about the IC50 (cyprids of A. amphitrite; 24 h) of the same compound?
**A.** 1.49 µM

**Q.** What about the EC50 (cyprids of A. amphitrite; 48 h) of the same compound?
**A.** 64.7 µM

**Q.** What about the IC50 (cyprids of A. amphitrite; 48 h) of the same compound?
**A.** 1.06 µM

**Q.** And the EC50 (cyprids of A. amphitrite; 72 h)?
**A.** 78.9 µM

**Q.** What about the IC50 (cyprids of A. amphitrite; 72 h) of the same compound?
**A.** 1.02 µM

**Q.** And the LC50 at 24 h (in vivo)?
**A.** 29.8 µM

**Q.** And the LC50 at 48 h (in vivo)?
**A.** 849 µM

**Q.** What about the LC50 at 72 h (in vivo) of the same compound?
**A.** 8.15 µM

**Q.** Which results are given for CC1=CC[C@@]2(C)C(=C(C)C(=O)[C@@H](O)[C@@H]2C)CC1 [Compound 10, perforenone A]?
**A.** EC50 (cyprids of A. amphitrite; 24 h): 39.3 µM; IC50 (cyprids of A. amphitrite; 24 h): 5.24 µM; EC50 (cyprids of A. amphitrite; 48 h): 71 µM; IC50 (cyprids of A. amphitrite; 48 h): 0.662 µM; EC50 (cyprids of A. amphitrite; 72 h): 57.2 µM; IC50 (cyprids of A. amphitrite; 72 h): 4.66 µM; LC50 at 24 h (in vivo): 28.8 µM; LC50 at 48 h (in vivo): 28.5 µM; LC50 at 72 h (in vivo): 28.8 µM

**Q.** Which EC50 (cyprids of A. amphitrite; 24 h) does the source give for C=C1CC[C@@](C)(c2ccc(C)cc2OC(C)=O)[C@H]1C [Compound 2, debromoallolaurinterol acetate] here?
**A.** 44 µM

**Q.** And the IC50 (cyprids of A. amphitrite; 24 h)?
**A.** 2.02 µM

**Q.** And the EC50 (cyprids of A. amphitrite; 48 h)?
**A.** 38.2 µM

**Q.** What about the IC50 (cyprids of A. amphitrite; 48 h) of the same compound?
**A.** 18.1 µM

**Q.** And the EC50 (cyprids of A. amphitrite; 72 h)?
**A.** 36.5 µM

**Q.** What about the IC50 (cyprids of A. amphitrite; 72 h) of the same compound?
**A.** 19.8 µM

**Q.** And the LC50 at 24 h (in vivo)?
**A.** > 1000 µM

**Q.** And the LC50 at 48 h (in vivo)?
**A.** 790 µM

**Q.** What about the LC50 at 72 h (in vivo) of the same compound?
**A.** 191 µM

**Q.** For CC(=CC=CC1(C)CCC(Br)C(C)(C)O1)C1CCC(C)(O)C(Br)C1 (stereo not drawn) [Compound 20, O^11,15-cyclo-14-bromo-14,15-dihydrorogiol-3,11-diol], which EC50 (cyprids of A. amphitrite; 24 h) is on record?
**A.** 47 µM

**Q.** And the IC50 (cyprids of A. amphitrite; 24 h)?
**A.** 2.57 µM

**Q.** What about the EC50 (cyprids of A. amphitrite; 48 h) of the same compound?
**A.** 11.3 µM

**Q.** And the IC50 (cyprids of A. amphitrite; 48 h)?
**A.** 2.89 µM

**Q.** And the EC50 (cyprids of A. amphitrite; 72 h)?
**A.** 10.1 µM

**Q.** What about the IC50 (cyprids of A. amphitrite; 72 h) of the same compound?
**A.** 3.32 µM

**Q.** And the LC50 at 72 h (in vivo)?
**A.** 138 µM

**Q.** What does the source list for C=CC(C)(O)CCC1C(=C)CCC(Br)C1(C)CCC(O)C(C)(C)Cl (stereo not drawn) [Compound 16]?
**A.** EC50 (cyprids of A. amphitrite; 24 h): 58.3 µM; IC50 (cyprids of A. amphitrite; 24 h): 1.42 µM; EC50 (cyprids of A. amphitrite; 48 h): 49.1 µM; IC50 (cyprids of A. amphitrite; 48 h): 1.96 µM; EC50 (cyprids of A. amphitrite; 72 h): 58.5 µM; IC50 (cyprids of A. amphitrite; 72 h): 2.2 µM; LC50 at 24 h (in vivo): > 1000 µM; LC50 at 48 h (in vivo): > 1000 µM; LC50 at 72 h (in vivo): > 1000 µM

**Q.** Which results are given for C#CC=CCC1OC(C=CC)CC=CCC1Cl (stereo not drawn) [Compound 21, (3Ε)-laurenyne]?
**A.** EC50 (cyprids of A. amphitrite; 24 h): 7.42 µM; IC50 (cyprids of A. amphitrite; 24 h): 3.21 µM; EC50 (cyprids of A. amphitrite; 48 h): 18.2 µM; IC50 (cyprids of A. amphitrite; 48 h): 7.37 µM; EC50 (cyprids of A. amphitrite; 72 h): 0.001 µM; IC50 (cyprids of A. amphitrite; 72 h): 0.575 µM; LC50 at 24 h (in vivo): 0.575 µM; LC50 at 48 h (in vivo): 1.12 µM; LC50 at 72 h (in vivo): 18.6 µM
